# Data published in patent publication US20100298141A1, “SUBSTITUTED PYRIDINE N-OXIDE HERBICIDES” (E. I. DU PONT DE NEMOURS AND COMPANY, priority 2007, published 2010).
# Assays:
# crabgrass = assay: Test A pre-/postemergence greenhouse test; type: in vivo, Digitaria sanguinalis; conditions: for Plant response rating, Crabgrass, Large: 0 to 100 scale where 0 is no effect and 100 is complete control; for Crabgrass, Large plant response rating: 0 to 100 scale
# Summary of the method: (§1)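 Untreated controls served as the reference for visual injury ratings taken about ten days after spraying. The non-phytotoxic solvent/surfactant formulation was applied preemergence to seeded loam and sand and postemergence to plants two to ten cm high.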
# umbrella sedge = assay: Test C flooded paddy test; type: in vivo, Cyperus difformis; conditions: Flood
# Summary of the method: (§2)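 Greenhouse pots flooded to 3 cm above soil at time of treatment received compound via the water, which stayed at that level.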
# Goosegrass = assay: Test C pre-/postemergence test; type: in vivo, Eleusin indica
# Summary of the method: (§3)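 Test chemicals were formulated with surfactant in a non-phytotoxic solvent and sprayed both on freshly planted seeds (preemergence) and on 1- to 4-leaf plants of 2–18 cm (postemergence). Flooded-paddy pots received compound directly into 3 cm of standing water, maintained for the test.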
# Italian ryegrass = assay: Test C pre-/postemergence test; type: in vivo, Lolium multiflorum; conditions: for Ryegrass, Italian plant response rating: preemergence, scale 0 (no effect) to 100 (complete control)
# Summary of the method: as §3
# wheat = assay: Test C pre-/postemergence test; type: in vivo, Triticum aestivum
# Summary of the method: as §3
# blackgrass = assay: Test C pre-/postemergence test; type: in vivo, Alopecurus myosuroides
# Summary of the method: as §3
# duck salad = assay: Test C flooded paddy test; type: in vivo, Heteranthera limosa; conditions: Flood
# Summary of the method: as §2
# morningglory = assay: Test A pre-/postemergence greenhouse test; type: in vivo, Ipomoea spp.; conditions: for Plant response rating, Morningglory: 0 to 100 scale where 0 is no effect and 100 is complete control; for Morningglory plant response rating: 0 to 100 scale
# Summary of the method: as §1
# common ragweed = assay: Test C pre-/postemergence test; type: in vivo, Ambrosia elation; conditions: for Plant response rating (0 to 100), Ragweed / Plant response rating, Ragweed: Postemergence; for Plant response rating, Ragweed: scale 0 to 100, 0 no effect, 100 complete control
# Summary of the method: as §3
# redroot pigweed = assay: Test A pre-/postemergence greenhouse test; type: in vivo, Amaranthus retroflexus; conditions: for Plant response rating, Pigweed: 0 to 100 scale where 0 is no effect and 100 is complete control; for Pigweed plant response rating: 0 to 100 scale
# Summary of the method: as §1
# green foxtail = assay: Test C pre-/postemergence test; type: in vivo, Setaria viridis
# Summary of the method: as §3
# wild oat = assay: Test C pre-/postemergence test; type: in vivo, Avena fatua
# Summary of the method: as §3
# yellow nutsedge = assay: Test C pre-/postemergence test; type: in vivo, Cyperus esculentus
# Summary of the method: as §3
# woolly cupgrass = assay: Test C pre-/postemergence test; type: in vivo, Eriochloa villosa
# Summary of the method: as §3
# [1] = tested on: common (oilseed) sunflower; assay: Test C pre-/postemergence test; type: in vivo, Helianthus annuus
# Summary of the method: as §3
# eastern black nightshade = assay: Test C pre-/postemergence test; type: in vivo, Solanum ptycanthum
# Summary of the method: as §3
# corn = assay: Test C pre-/postemergence test; type: in vivo, Zea mays
# Summary of the method: as §3
# [2] = Postemergence, 500 g ai/ha, 0 is no effect, 100 is complete control
# [3] = Preemergence, 125 g ai/ha, 0 no effect, 100 complete control
# [4] = 62 g ai/ha, scale 0 to 100 (0 no effect, 100 complete control)
# [5] = 250 g ai/ha, scale 0 to 100, 0 no effect, 100 complete control, 13 to 15 days
# [6] = 62 g ai/ha, Preemergence, scale 0 to 100
# [7] = 125 g ai/ha, preemergence, scale 0 (no effect) to 100 (complete control)
# [8] = Postemergence, 125 g ai/ha, scale 0 to 100, 0 no effect, 100 complete control
# [9] = Postemergence, 250 g ai/ha, scale 0 to 100, 0 no effect, 100 complete control
# [10] = Preemergence, 31 g ai/ha, scale 0 to 100 (0 no effect, 100 complete control)
# [11] = preemergence, 250 g ai/ha, scale 0 (no effect) to 100 (complete control)
smiles,measurement,setting,value
CC(Oc1c(CS(=O)(=O)c2cccc[n+]2[O-])c(C(F)(F)F)nn1C)C(F)(F)F (stereo not drawn) [Compound 82],"Plant response rating, Crabgrass, Large","crabgrass; Postemergence, 125 g ai/ha",80
same,"Crabgrass, Large plant response rating",crabgrass; [2],90
same,"Crabgrass, Large plant response rating",crabgrass; [3],80
same,"Plant response rating, Crabgrass, Large","crabgrass; Preemergence, 500 g ai/ha",100
same,"Plant response rating, Sedge, Umbrella",umbrella sedge; [4],100
same,"Plant response rating, Sedge, Umbrella",umbrella sedge; [5],100
same,Goosegrass plant response rating,Goosegrass; [6],100
same,Goosegrass plant response rating,Goosegrass; [7],100
same,"Plant response rating (0 to 100), Goosegrass","Goosegrass; Postemergence, 31 g ai/ha",0
same,"Plant response rating (0 to 100), Goosegrass","Goosegrass; Postemergence, 62 g ai/ha",0
same,"Plant response rating, Goosegrass",Goosegrass; [8],10
same,"Plant response rating, Goosegrass",Goosegrass; [9],40
same,"Plant response rating, Goosegrass",Goosegrass; [10],90
same,Goosegrass plant response rating,Goosegrass; [11],100
same,"Ryegrass, Italian plant response rating",Italian ryegrass; 125 g ai/ha,80
same,"Plant response rating (0 to 100), Ryegrass, Italian","Italian ryegrass; Postemergence, 31 g ai/ha",0
same,"Plant response rating (0 to 100), Ryegrass, Italian","Italian ryegrass; Postemergence, 62 g ai/ha",0
same,"Plant response rating, Ryegrass, Italian",Italian ryegrass; [8],85
same,"Plant response rating, Ryegrass, Italian",Italian ryegrass; [9],90
same,"Plant response rating, Ryegrass, Italian",Italian ryegrass; [10],75
same,"Ryegrass, Italian plant response rating",Italian ryegrass; 250 g ai/ha,100
same,Wheat plant response rating,wheat; [6],20
same,Wheat plant response rating,wheat; [7],30
same,"Plant response rating (0 to 100), Wheat","wheat; Postemergence, 31 g ai/ha",0
same,"Plant response rating (0 to 100), Wheat","wheat; Postemergence, 62 g ai/ha",20
same,"Plant response rating, Wheat",wheat; [8],25
same,"Plant response rating, Wheat",wheat; [9],35
same,"Plant response rating, Wheat",wheat; [10],10
same,Wheat plant response rating,wheat; [11],60
same,Blackgrass plant response rating,blackgrass; [6],100
same,Blackgrass plant response rating,blackgrass; [7],100
same,"Plant response rating (0 to 100), Blackgrass","blackgrass; Postemergence, 31 g ai/ha",0
same,"Plant response rating (0 to 100), Blackgrass","blackgrass; Postemergence, 62 g ai/ha",60
same,"Plant response rating, Blackgrass",blackgrass; [8],90
same,"Plant response rating, Blackgrass",blackgrass; [9],95
same,"Plant response rating, Blackgrass",blackgrass; [10],100
same,Blackgrass plant response rating,blackgrass; [11],100
same,"Plant response rating, Ducksalad",duck salad; [4],60
same,"Plant response rating, Ducksalad",duck salad; [5],80
same,"Plant response rating, Morningglory","morningglory; Postemergence, 125 g ai/ha",40
same,Morningglory plant response rating,morningglory; [2],50
same,Morningglory plant response rating,morningglory; [3],60
same,"Plant response rating, Morningglory","morningglory; Preemergence, 500 g ai/ha",100
same,Ragweed plant response rating,common ragweed; [6],0
same,Ragweed plant response rating,common ragweed; [7],100
same,"Plant response rating (0 to 100), Ragweed",common ragweed; 31 g ai/ha,0
same,"Plant response rating (0 to 100), Ragweed",common ragweed; 62 g ai/ha,30
same,"Plant response rating, Ragweed",common ragweed; 125 g ai/ha,35
same,"Plant response rating, Ragweed",common ragweed; 250 g ai/ha,50
same,Ragweed plant response rating,common ragweed; [11],100
same,"Plant response rating, Pigweed","redroot pigweed; Postemergence, 125 g ai/ha",30
same,Pigweed plant response rating,redroot pigweed; [2],70
same,Pigweed plant response rating,redroot pigweed; [3],40
same,"Plant response rating, Pigweed","redroot pigweed; Preemergence, 500 g ai/ha",100
same,"Foxtail, Green plant response rating",green foxtail; [6],95
same,"Foxtail, Green plant response rating",green foxtail; [7],98
same,"Plant response rating (0 to 100), Foxtail, Green","green foxtail; Postemergence, 31 g ai/ha",0
same,"Plant response rating (0 to 100), Foxtail, Green","green foxtail; Postemergence, 62 g ai/ha",40
same,"Plant response rating, Foxtail, Green",green foxtail; [8],60
same,"Plant response rating, Foxtail, Green",green foxtail; [9],80
same,"Plant response rating, Foxtail, Green",green foxtail; [10],95
same,"Foxtail, Green plant response rating",green foxtail; [11],100
same,"Oat, Wild plant response rating",wild oat; [6],60
same,"Oat, Wild plant response rating",wild oat; [7],80
same,"Plant response rating (0 to 100), Oat, Wild","wild oat; Postemergence, 31 g ai/ha",0
same,"Plant response rating (0 to 100), Oat, Wild","wild oat; Postemergence, 62 g ai/ha",0
same,"Plant response rating, Oat, Wild",wild oat; [8],0
same,"Plant response rating, Oat, Wild",wild oat; [9],40
same,"Plant response rating, Oat, Wild",wild oat; [10],35
same,"Oat, Wild plant response rating",wild oat; [11],80
same,"Nutsedge, Yellow plant response rating",yellow nutsedge; [6],60
same,"Nutsedge, Yellow plant response rating",yellow nutsedge; [7],75
same,"Plant response rating (0 to 100), Nutsedge, Yellow","yellow nutsedge; Postemergence, 31 g ai/ha",0
same,"Plant response rating (0 to 100), Nutsedge, Yellow","yellow nutsedge; Postemergence, 62 g ai/ha",0
same,"Plant response rating, Nutsedge, Yellow",yellow nutsedge; [8],0
same,"Plant response rating, Nutsedge, Yellow",yellow nutsedge; [9],0
same,"Plant response rating, Nutsedge, Yellow",yellow nutsedge; [10],40
same,"Nutsedge, Yellow plant response rating",yellow nutsedge; [11],100
same,"Cupgrass, Woolly plant response rating",woolly cupgrass; [6],90
same,"Cupgrass, Woolly plant response rating",woolly cupgrass; [7],90
same,"Plant response rating (0 to 100), Cupgrass, Woolly","woolly cupgrass; Postemergence, 31 g ai/ha",0
same,"Plant response rating (0 to 100), Cupgrass, Woolly","woolly cupgrass; Postemergence, 62 g ai/ha",0
same,"Plant response rating, Cupgrass, Woolly",woolly cupgrass; [8],20
same,"Plant response rating, Cupgrass, Woolly",woolly cupgrass; [9],50
same,"Plant response rating, Cupgrass, Woolly",woolly cupgrass; [10],80
same,"Cupgrass, Woolly plant response rating",woolly cupgrass; [11],98
same,Sunflower plant response rating,[1]; [6],0
same,Sunflower plant response rating,[1]; [7],45
same,"Plant response rating, Sunflower",[1]; [10],0
same,Sunflower plant response rating,[1]; [11],50
same,Nightshade plant response rating,eastern black nightshade; [6],40
same,Nightshade plant response rating,eastern black nightshade; [7],80
same,"Plant response rating, Nightshade",eastern black nightshade; [10],0
same,Nightshade plant response rating,eastern black nightshade; [11],100
same,Corn plant response rating,corn; [6],40
same,Corn plant response rating,corn; [7],70
same,"Plant response rating (0 to 100), Corn","corn; Postemergence, 31 g ai/ha",0
same,"Plant response rating (0 to 100), Corn","corn; Postemergence, 62 g ai/ha",0
same,"Plant response rating, Corn",corn; [8],0
same,"Plant response rating, Corn",corn; [9],0
same,"Plant response rating, Corn",corn; [10],40
same,Corn plant response rating,corn; [11],80
